Test results as given in patent US20240344128A1, “IDENTIFICATION AND ELIMINATION OF DAMAGED AND/OR SENESCENT CELLS” (FUNDACIÓN DEL SECTOR PÜBLICO ESTATAL CENTRO NACIONAL DE …, priority 2017, published 2024).

Tests used:
senescent cells = conditions: cited from earlier work; for elimination of senescent cells: literature reports
PD-L2 mRNA [1] = test: Doxorubicin-induced PD-L2 mRNA in C2C12 cells with enzymatic inhibitors; type: cell-based, mouse; conditions: 500 nM doxorubicin, 48 hours
Description: C2C12 cells (FIG. 9) were treated with 500 nM doxorubicin for 48 hours in the presence or absence of the following inhibitors at the indicated concentrations: IKKi (50 μM), PIMi (1 μM), rotenone (1 μM), JAKi (3 μM), rapamycin (50 nM) and metformin (5 mM) or cultured in pyruvate-depleted media (FIG. 9A). In addition, C2C12 cells were incubated for 6 hours in the presence or absence of TLRs agonists (Mouse TLR1-9 Agonist kit. Invivogen): TLR1/2 agonist (Pam3CSK4, 300 ng/ml), TLR2 agonist (HKLM, 10^8 cells/ml), TLR3 agonist (Poly (I:C) HMW and Poly (I:C) LMW, 10 μg/ml), TLR4 agonist (LPS-EK, 10 μg/ml), TRL5 agonist (FLA-ST, 1 μg/ml), TRL6/2 agonist (FSL-1, 100 ng/ml), TRL7 agonist (ssRNA40, 5 μg/ml) and TLR9 agonist (ODN1826, 5 μM). Total RNA was isolated using TRI Reagent (Sigma-Aldrich #T9424) according to the manufacturer's instructions.
(§1) The isolated RNA was quantified using a nanodrop machine NanoVue (GE Healthcare). cDNA synthesis was performed with 2-7 μg of total RNA using the “iScript Advanced cDNA Synthesis kit” from BIO-RAD (#1725037). Quantitative real-time PCR was carried out with diluted cDNA (1:10) and “GoTaq qPCR Master Mix” (Promega A6002). Reactions were performed in triplicate in a 15 μl volume reaction mix prepared as follow: 7.5 μl 2X GoTaq qPCR Master Mix; 0.6 μl of pre-mixed primers (10 μM forward primer and 10 μM reverse primer); 1.9 μl nuclease-free water and 5 μl template cDNA (previously diluted 1:10).
The qRT-PCR reaction was performed on a 7500 Fast Real-Time PCR System (Applied Biosystems) using “MicroAmp Fast Optical 96-well reaction plate with barcode” (Thermo Fisher #4346906) and “MicroAmp Optical adhesive film” (Thermo Fisher #4311971). The reaction consisted in two holding stages (50° C. for 2:00 min and 95° C. for 10:00 min) and 40 amplification reactions (95° C. for 00:15 min/60° C. for 01:00 min/72° C. for 00:30 min) followed by a Melt Curve Stage.
The Ct values of the genes of interest were averaged and normalized to the housekeeping gene β-actin. For each cell line and condition at least two independent experiments were performed.

PD-L2 mRNA [2] = test: PD-L1 and PD-L2 mRNA by quantitative RT-PCR in mouse cell lines after 48 hours of genotoxic drugs; type: cell-based; conditions: C2C12, HcMel3 and HcMel13 cells
Description: C2C12, HcMel3 and HcMel12 (FIG. 3) were treated with 12×10^−3 units/ml bleomycin or doxorubicin 500 nM (C2C12) or 167 nM (HcMel3 and HcMel12) for 48 hours. Total RNA was isolated using TRI Reagent (Sigma-Aldrich #T9424) according to the manufacturer's instructions.
as §1
The qRT-PCR reaction was performed on a 7500 Fast Real-Time PCR System (Applied Biosystems) using “MicroAmp Fast Optical 96-well reaction plate with barcode” (Thermo Fisher #4346906) and “MicroAmp Optical adhesive film” (Thermo Fisher #4311971). The reaction consisted in two holding stages (50° C. for 2:00 min and 95° C. for 10:00 min) and 40 amplification reactions (95° C. for 00:15 min/60° C. for 01:00 min/72° C. for 00:30 min) followed by a Melt Curve Stage. […]

SK-Mel-103 cells = test: 53BP1 immunofluorescence (DNA double-strand breaks); type: cell-based, human; conditions: 7 days
Description: SK-Mel-103 cells were seeded at 50% confluency on round 12 mm diameter coverslips (Marienfeld #0111520) previously placed inside 24 well plates. The following day, cells were treated with the senescence-inducing agents: 2 μM Palbociclib, […], 1 μM Nutlin and 6×10^−3 units/ml Bleomycin. Treated cells were not further split and their media was not changed for the duration of the treatment (7 days). Control cells were seeded similarly to treated, cells 24-48 hours prior the beginning of the procedure. Seven days after addition of the senescence-inducing agents, control and treated cells were washed with 1×PBS and Fixed on 2% paraformaldehyde-PBS for 10 minutes. The cells were then permeabilized with 0.25% Triton-PBS for 5 minutes, washed twice with 1×PBS and blocked with 5% BSA-PBS for 30 minutes. Next, the cells were incubated for 30 minutes with anti-53BP1 antibody (Abcam #ab172580) previously diluted 1:100 in blocking buffer (5% BSA-PBS), washed 3 times for 10 minutes with 1X PBS and incubated in the dark for 30 additional minutes with the secondary antibody: goat anti-rabbit Alexa Fluor 546 (ThermoFisher #A-11010) diluted 1:400 in blocking buffer. Finally, the cells were washed again 3 times for 10 minutes with 1×PBS and incubated with DAPI (Sigma #D9542) 300 nM in 1×PBS for 10 minutes. All the incubations and washed were performed at room temperature in 24 well plates. […]

PD-L2 mRNA [3] = test: PD-L2 mRNA in mouse melanoma cell lines B16F1 and B16F10; type: cell-based; conditions: B16F1 and B16F10 cells; data not shown
[4] = test system: SK-Mel-103, UT-SCC-38 and UT-SCC-42B cells; test: SA-β gal / senescent response in human tumor cell lines; type: cell-based; conditions: SK-Mel-103 cells, 7 days
Description: SK-Mel-103, UT-SCC-38 and UT-SCC-42B the cell lines were maintained in DMEM (Gibco) supplemented with 10% fetal bovine serum (Gibco) with antimycotic-antibiotic (Gibco), and incubated in 20% O2 sand 5% CO2 at 37° C. SK-Mel-103 and UT-SCC-42B cells were split 1:10 every 3-4 days. UT-SCC-38 were split 1:3 every 3-4 days.
Eight days before the assay 20.000 SK-Mel-103 cells and 40.000 UT-SCC-38 and UT-SCC-42B cells were seeded into 6 well tissue culture plates (Falcon). The next day cells were treated with 2 μM Palbociclib. SK-Mel-103 cells were also treated with 10 nM Doxorubicin, 1 μM Nutlin or 6×10^−3 units/ml Bleomycin. All the cells were incubated in the presence of the senescence-inducing agents for at least 7 days without changing the media. Control cells were seeded in 6 well plates 24-48 hours prior the SA-β gal assay.
SA-β galactosidase activity was assessed with the β-Galactosidase Staining Kit from Cell Signaling (#9860) following the manufactured instructions with one single variation: the pH of the “Staining Solution” (supplemented with buffers A and B and X-gal) was carefully adjusted to 6.

lungs = test: Bleomycin-induced lung fibrosis in C57BL6 mice; type: in vivo, mouse; conditions: single intratracheal dose, 14 days
Description: SA-β galactosidase activity was assessed in whole mount lungs (FIG. 5A) and xenografts (FIG. 6B) using the Senescence β-Galactosidase Staining Kit (Cell Signaling #9860). Lungs were fixed for 45 minutes with a solution containing 2% formaldehyde and 0.2% glutaraldehyde in PBS for 45 minutes and washed three times with PBS. Fixed tissues were subsequently stained overnight (16 hours) with X-gal staining solution (adjusted to pH 6.0).
For gene expression analysis lungs were isolated and embedded in optimal cutting temperature (OCT) compound (Leica Biosystems). To obtain total RNA of OCT embedded tissue samples, 10 cryostat sections of 10 μm thickness were cut and excess OCT were removed. Cryosections were lysed in TRI Reagent (Sigma-Aldrich #T9424), pooled and processed according to manufacturer's instructions. cDNA was synthesized using 2 μg of total RNA. cDNA synthesis and RT-qPCR were performed as previously described. The Ct values of the genes of interest were averaged and normalized to the housekeeping gene Gapdh.
Lung fibrosis was induced in C57BL6 mice (ENVIGO) by intratracheal delivery of a single dose of bleomycin (1.5 U/kg) or vehicle (PBS). 14 days after intratracheal injection, lung samples of vehicle (control) or bleomycin (fibrotic)-treated mice were collected for the analysis of SA-β gal activity and gene expression.

PD-L2 mRNA [5] = test: PD-L1 and PD-L2 mRNA by quantitative RT-PCR in human tumor cell lines; type: cell-based; conditions: SK-Mel-103 cells, 7 days
Description: Treated cells were not further split and their media was not changed for the duration of the treatment. Control cells were split every 3-4 days as previously described. One week after the start of the treatment, total RNA was isolated from control and treated cells with TRI Reagent (Sigma-Aldrich #T9424) following the manufacturer instructions. The isolated RNA was quantified using a nanodrop machine NanoVue (GE Healthcare). cDNA synthesis was performed with 2-7 μg of total RNA using the “iScript Advanced cDNA Synthesis kit” from BIO-RAD (#1725037). Quantitative real-time PCR was carried out with diluted cDNA (1:10) and “GoTaq qPCR Master Mix” (Promega A6002). Reactions were performed in triplicate in a 15 μl volume reaction mix prepared as follow: 7.5 μl 2X GoTaq qPCR Master Mix; 0.6 μl of pre-mixed primers (10 μM forward primer and 10 μM reverse primer); 1.9 μl nuclease-free water and 5 μl template cDNA (previously diluted 1:10). The qRT-PCR reaction was performed on a 7500 Fast Real-Time PCR System (Applied Biosystems) using “MicroAmp Fast Optical 96-well reaction plate with barcode” (Thermo Fisher #4346906) and “MicroAmp Optical adhesive film” (Thermo Fisher #4311971). […]

## CN(C)CC[C@H](CSc1ccccc1)Nc1ccc(S(=O)(=O)NC(=O)c2ccc(N3CCN(Cc4ccccc4-c4ccc(Cl)cc4)CC3)cc2)cc1[N+](=O)[O-] [ABT-737]
Senescent cells
  elimination of senescent cells: selectively eliminate senescent cells

## Fc1cc(-c2cccc3ncc(-c4cnn(C5CCNCC5)c4)nc23)cc(F)c1CN1CCOCC1 [JAK inhibitor, NVP-BSK805]
PD-L2 mRNA [1]
  PD-L2 induction: prevented PD-L2 induction

## Cc1ccc(S(=O)(=O)/C=C/C#N)cc1 [NFkB inhibitor, BAY 11-7082]
PD-L2 mRNA [1]
  PD-L2 induction: prevented PD-L2 induction

## CC1(C)CCC(c2ccc(Cl)cc2)=C(CN2CCN(c3ccc(C(=O)NS(=O)(=O)c4ccc(N[C@H](CCN5CCOCC5)CSc5ccccc5)c(S(=O)(=O)C(F)(F)F)c4)cc3)CC2)C1 [Navitoclax]
Senescent cells
  elimination of senescent cells: efficiently eliminate senescent cells in vitro and in vivo

## O=c1c(O)c(-c2ccc(O)c(O)c2)oc2cc(O)cc(O)c12 [Quercetin]
Senescent cells; Dasatinib and Quercetin used in combination, aged, progeroid and irradiation-exposed mice
  number of damaged and/or senescent cells: reduced the number of damaged and/or senescent cells

## COc1cccc2c1C(=O)c1c(O)c3c(c(O)c1C2=O)C[C@@](O)(C(=O)CO)C[C@@H]3O[C@H]1C[C@H](N)[C@H](O)[C@H](C)O1 [doxorubicin, Doxorubicin]
PD-L2 mRNA [2]
  PD-L2 mRNA: dramatic increase in PD-L2 mRNA

## CN(C)C(=N)N=C(N)N [metformin]
PD-L2 mRNA [1]
  PD-L2 induction: prevented PD-L2 induction

## C=C(C)[C@H]1Cc2c(ccc3c2O[C@@H]2COc4cc(OC)c(OC)cc4[C@@H]2C3=O)O1 [rotenone]
PD-L2 mRNA [1]
  PD-L2 induction: prevented PD-L2 induction

## Bleomycin
SK-Mel-103 cells
  DNA damage (53BP1 foci): exhibited nuclear 53-BP1 foci
PD-L2 mRNA [3]
  PD-L2 mRNA: PD-L2 mRNA up-regulation
[4]
  induction of senescence: induce senescence in the SK-Mel-103 cells
lungs
  senescent cells (SA-β galactosidase positive staining) in whole fibrotic lungs: accumulation of senescent cells
lungs; lung
  PD-L2 and PD-L1 mRNA in fibrotic organs: significant and specific up-regulation of PD-L2 mRNA, but not of PD-L1 mRNA
PD-L2 mRNA [2]
  PD-L2 mRNA: dramatic increase in PD-L2 mRNA
PD-L2 mRNA [5]
  PD-L2 mRNA levels: had a similar effect on PD-L2 mRNA levels

## Nutlin
SK-Mel-103 cells
  DNA damage (53BP1 foci): absence of 53BP1 foci in the chromatin
[4]
  induction of senescence: induce senescence in the SK-Mel-103 cells
PD-L2 mRNA [5]
  PD-L2 mRNA levels: had a similar effect on PD-L2 mRNA levels
